Assay results taken from ChEMBL document CHEMBL1201862, “PubChem BioAssay data set” (2004).
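Five concentrations, 48 hours, 96-well plates. The concentration for 50% growth inhibition is given as GI50.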 Calls of active or inactive are those of the source. No stated cut-off is given here; in the data, active = GI50 up to about 1.1 µM and inactive = higher.

How the values were obtained:
Test in all cases: NCI-60 cell line screen, 48 h
ACHN = system: ACHN
CCRF-CEM = system: CCRF-CEM
HCT-116 = system: HCT-116
HCT-15 = system: HCT-15
HOP-92 = system: HOP-92
M14 = system: M14
MOLT-4 = system: MOLT-4
NCI-H226 = system: NCI-H226
NCI-H522 = system: NCI-H522
OVCAR-5 = system: OVCAR-5
OVCAR-8 = system: OVCAR-8
RPMI-8226 = system: RPMI-8226
SF-539 = system: SF-539
SNB-19 = system: SNB-19
SW-620 = system: SW-620
U-251 = system: U-251
SR = system: SR

Compound | GI50 (ACHN) | GI50 (CCRF-CEM) | GI50 (HCT-116) | GI50 (HCT-15) [µM] | GI50 (HOP-92) | GI50 (M14) | GI50 (MOLT-4) | GI50 (NCI-H226) | GI50 (NCI-H522) | GI50 (OVCAR-5) | GI50 (OVCAR-8) | GI50 (RPMI-8226) | GI50 (SF-539) | GI50 (SNB-19) | GI50 (SW-620) | GI50 (U-251) | GI50 (SR)
O=S(=O)(CC1=NC2C=CC=CC2N=C1)NCc1ccccc1 (centres undefined) | > 100 µM (inactive) | > 100 µM (inactive) | > 100 µM (inactive) | 81.7 | 75.3 µM (inactive) | > 100 µM (inactive) | 69.5 µM (inactive) | 78.7 µM (inactive) | 76.2 µM (inactive) | > 100 µM (inactive) | > 100 µM (inactive) | > 100 µM (inactive) | > 100 µM (inactive) | > 100 µM (inactive) | > 100 µM (inactive) | > 100 µM (inactive) | 
COC(=O)C1CC2c3c(c4ccccc4n3C)CC(C1=O)N2C (centres undefined) | 35.7 µM (inactive) | 34.6 µM (inactive) | 33 µM (inactive) | 22.3 | 74.3 µM (inactive) | 37.8 µM (inactive) | 29 µM (inactive) | 50.6 µM (inactive) | 17.3 µM (inactive) | > 100 µM (inactive) | 34.5 µM (inactive) |  | 32.5 µM (inactive) | 75.9 µM (inactive) | 34.8 µM (inactive) | 49.8 µM (inactive) | 27.5 µM (inactive)
COc1cc(C(=O)C(CO)Oc2ccccc2OC)ccc1O (centres undefined) | > 100 µM (inactive) | > 100 µM (inactive) | > 100 µM (inactive) | > 100 | 88.7 µM (inactive) | > 100 µM (inactive) | > 100 µM (inactive) | > 100 µM (inactive) | > 100 µM (inactive) | > 100 µM (inactive) | > 100 µM (inactive) |  | > 100 µM (inactive) | > 100 µM (inactive) | > 100 µM (inactive) | > 100 µM (inactive) | 34.9 µM (inactive)
CC(C)N1CN(C(C(=O)N[C@@H]2C(=O)N3C2SC(C)(C)C3C(=O)O)c2ccc(O)cc2)CSC1=S (some centres undefined) | > 100 µM (inactive) | 58.7 µM (inactive) | > 100 µM (inactive) | 43 | > 100 µM (inactive) | > 100 µM (inactive) | > 100 µM (inactive) |  | 41 µM (inactive) | > 100 µM (inactive) | > 100 µM (inactive) | 94.2 µM (inactive) | > 100 µM (inactive) | > 100 µM (inactive) | 16.9 µM (inactive) | > 100 µM (inactive) | 
N#CCC(=O)N1CCCOCCC1 | > 100 µM (inactive) | > 100 µM (inactive) | > 100 µM (inactive) | 17.9 |  | > 100 µM (inactive) | 0.46 µM (active) |  |  | > 100 µM (inactive) |  |  | > 100 µM (inactive) | > 100 µM (inactive) | 6.73 µM (inactive) | > 100 µM (inactive) | 
N=C1CSC2=NC3=C(CCC/C3=C\c3ccccc3)C(c3ccccc3)N12 (centres undefined) | 11.9 µM (inactive) | 2.24 µM (inactive) | 3.54 µM (inactive) |  |  | 3.3 µM (inactive) | 2.49 µM (inactive) | 6.38 µM (inactive) | 2.61 µM (inactive) | 6.53 µM (inactive) | 5.92 µM (inactive) | 2.16 µM (inactive) | 6 µM (inactive) | 5.94 µM (inactive) | 3.92 µM (inactive) | 3.42 µM (inactive) | 
CCC1C(C)c2c([nH]c3ccccc23)C2C(=O)N(c3ccccc3)C(=O)C21 (centres undefined) | 18.2 µM (inactive) | 18 µM (inactive) |  | 13.6 |  | 17.8 µM (inactive) | 9.31 µM (inactive) |  |  |  | 14.5 µM (inactive) | 11.9 µM (inactive) | 18.7 µM (inactive) |  | 16.5 µM (inactive) | 14.6 µM (inactive) | 8.41 µM (inactive)
CC1=NC2(C(=O)O)C3(C(=O)O)N=C(C)OC3(C(F)(F)F)C2(C(F)(F)F)O1 (centres undefined) | > 100 µM (inactive) | > 100 µM (inactive) | > 100 µM (inactive) | > 10 | > 100 µM (inactive) | > 100 µM (inactive) | > 100 µM (inactive) | > 100 µM (inactive) | > 100 µM (inactive) | > 100 µM (inactive) | > 100 µM (inactive) |  | > 100 µM (inactive) | > 100 µM (inactive) | > 100 µM (inactive) | > 100 µM (inactive) | > 100 µM (inactive)
C#Cc1c(C)c(/C=C/C(C)=C/C(=O)OC)n(C)c1C | 43.7 µM (inactive) | 51.9 µM (inactive) | 65.8 µM (inactive) | 95.3 | 25 µM (inactive) | > 100 µM (inactive) | 23.4 µM (inactive) | > 100 µM (inactive) | 71.8 µM (inactive) | > 100 µM (inactive) | 71.9 µM (inactive) | 40.3 µM (inactive) | > 100 µM (inactive) | > 100 µM (inactive) | > 100 µM (inactive) | > 100 µM (inactive) | 
Cc1ccc(NC(=O)C(=O)CC(=O)c2ccccc2)cc1C | > 100 µM (inactive) |  | 60.3 µM (inactive) | 37.2 | > 100 µM (inactive) | > 100 µM (inactive) |  | > 100 µM (inactive) | 98.9 µM (inactive) | > 100 µM (inactive) | > 100 µM (inactive) | > 100 µM (inactive) | > 100 µM (inactive) | > 100 µM (inactive) | > 100 µM (inactive) | > 100 µM (inactive) | 
Cc1ccccc1-n1c(N)c(-c2nc3ccccc3[nH]2)sc1=S | 35 µM (inactive) | 36.5 µM (inactive) |  | 34.7 |  | 20.5 µM (inactive) | 27.7 µM (inactive) | 36 µM (inactive) | 21.3 µM (inactive) | 37 µM (inactive) | 32.8 µM (inactive) | 23.1 µM (inactive) | 24.1 µM (inactive) | 24.9 µM (inactive) | 31.1 µM (inactive) | > 10 µM (inactive) | 
O=C(CC(=O)N1N=C(n2ccc3ccccc32)CC1c1ccccc1)Nc1ccccc1Cl (centres undefined) | > 100 µM (inactive) | > 100 µM (inactive) | > 100 µM (inactive) | > 100 | 32.3 µM (inactive) | > 100 µM (inactive) | > 100 µM (inactive) |  | > 100 µM (inactive) |  | > 100 µM (inactive) | > 100 µM (inactive) | > 100 µM (inactive) | > 100 µM (inactive) | > 100 µM (inactive) | > 100 µM (inactive) | 
CN(C)c1ccccc1CC(c1c[nH]c2ccccc12)c1c[nH]c2ccccc12 | 8.36 µM (inactive) | 9.51 µM (inactive) | 11.2 µM (inactive) | 12.2 |  | 11.4 µM (inactive) | 4.35 µM (inactive) | 12.1 µM (inactive) | 12.9 µM (inactive) | 16.9 µM (inactive) | 11.2 µM (inactive) |  | 17.2 µM (inactive) | 14.4 µM (inactive) | 6.7 µM (inactive) | 12.1 µM (inactive) | 5.46 µM (inactive)
COc1cc(C2C(Cl)C(=O)N2NC(=O)c2ccc(NC(C)=O)cc2)ccc1O (centres undefined) | > 100 µM (inactive) | > 100 µM (inactive) | > 100 µM (inactive) | > 100 | > 100 µM (inactive) | > 100 µM (inactive) | > 100 µM (inactive) | > 100 µM (inactive) | > 100 µM (inactive) | > 100 µM (inactive) | > 100 µM (inactive) | > 100 µM (inactive) | > 100 µM (inactive) | > 100 µM (inactive) | > 100 µM (inactive) | > 100 µM (inactive) | 
